Here are results for 2 compounds from ChEMBL document CHEMBL1629466, “Synthesis and biological activity of some antitumor active derivatives from glycyrrhetinic acid” (Eur J Med Chem, 2010).

In the first experiment the test system is HCT-8. Put plainly: Cytotoxicity against human HCT8 cells after 96 hrs by sulforhodamine B assay. The class given is functional, cell-based.
`CC1(C)[C@@H](OC(=O)CCl)CC[C@]2(C)[C@H]3C(=O)C=C4[C@@H]5C[C@@](C)(C(=O)O)CC[C@]5(C)CC[C@@]4(C)[C@]3(C)CC[C@@H]12` came in with an IC50 of 13.39 µmol.

Turning to `COC(=O)[C@@]1(C)CC[C@]2(C)CC[C@]3(C)C(=CC(=O)[C@@H]4[C@@]5(C)CC[C@H](OC(=O)CNCCCCCCCCCN)C(C)(C)[C@@H]5CC[C@]43C)[C@@H]2C1`, the IC50 was 2.42 µmol.

System in the next experiment: not listed separately
As to the kind of experiment: Cytotoxicity against human Lipo cells after 96 hrs by sulforhodamine B assay. The class given is functional, cell-based.
For `CC1(C)[C@@H](OC(=O)CCl)CC[C@]2(C)[C@H]3C(=O)C=C4[C@@H]5C[C@@](C)(C(=O)O)CC[C@]5(C)CC[C@@]4(C)[C@]3(C)CC[C@@H]12`, the IC50 was 25.39 µmol.

On to `COC(=O)[C@@]1(C)CC[C@]2(C)CC[C@]3(C)C(=CC(=O)[C@@H]4[C@@]5(C)CC[C@H](OC(=O)CNCCCCCCCCCN)C(C)(C)[C@@H]5CC[C@]43C)[C@@H]2C1`, for which the IC50 came out at 5.48 µmol.

System in another experiment: not listed separately
Put plainly: Cytotoxicity against human 518A2 cells after 96 hrs by sulforhodamine B assay. The class given is functional, cell-based.
In the case of `CC1(C)[C@@H](OC(=O)CCl)CC[C@]2(C)[C@H]3C(=O)C=C4[C@@H]5C[C@@](C)(C(=O)O)CC[C@]5(C)CC[C@@]4(C)[C@]3(C)CC[C@@H]12`, the IC50 stood at 25.43 µmol.

`COC(=O)[C@@]1(C)CC[C@]2(C)CC[C@]3(C)C(=CC(=O)[C@@H]4[C@@]5(C)CC[C@H](OC(=O)CNCCCCCCCCCN)C(C)(C)[C@@H]5CC[C@]43C)[C@@H]2C1` yielded an IC50 of 3.12 µmol.

The next experiment has as its system SW-1736. As to the kind of experiment: Cytotoxicity against human SW1736 cells after 96 hrs by sulforhodamine B assay. The class given is functional, cell-based.
As to `CC1(C)[C@@H](OC(=O)CCl)CC[C@]2(C)[C@H]3C(=O)C=C4[C@@H]5C[C@@](C)(C(=O)O)CC[C@]5(C)CC[C@@]4(C)[C@]3(C)CC[C@@H]12`, the IC50 is 16.42 µmol.

As to `COC(=O)[C@@]1(C)CC[C@]2(C)CC[C@]3(C)C(=CC(=O)[C@@H]4[C@@]5(C)CC[C@H](OC(=O)CNCCCCCCCCCN)C(C)(C)[C@@H]5CC[C@]43C)[C@@H]2C1`, the IC50 amounted to 3.3 µmol.

A further experiment concerns A549. Put plainly: Cytotoxicity against human A549 cells after 96 hrs by sulforhodamine B assay. Type of experiment: functional, cell-based.
`CC1(C)[C@@H](OC(=O)CCl)CC[C@]2(C)[C@H]3C(=O)C=C4[C@@H]5C[C@@](C)(C(=O)O)CC[C@]5(C)CC[C@@]4(C)[C@]3(C)CC[C@@H]12` registered an IC50 of 24.8 µmol.

Take `COC(=O)[C@@]1(C)CC[C@]2(C)CC[C@]3(C)C(=CC(=O)[C@@H]4[C@@]5(C)CC[C@H](OC(=O)CNCCCCCCCCCN)C(C)(C)[C@@H]5CC[C@]43C)[C@@H]2C1`: the IC50 was 2.23 µmol.

The next experiment concerns MCF7. As to the kind of experiment: Cytotoxicity against human MCF7 cells after 96 hrs by sulforhodamine B assay. The class given is functional, cell-based.
In turn, `CC1(C)[C@@H](OC(=O)CCl)CC[C@]2(C)[C@H]3C(=O)C=C4[C@@H]5C[C@@](C)(C(=O)O)CC[C@]5(C)CC[C@@]4(C)[C@]3(C)CC[C@@H]12` gave an IC50 of 25.11 µmol.

On to `COC(=O)[C@@]1(C)CC[C@]2(C)CC[C@]3(C)C(=CC(=O)[C@@H]4[C@@]5(C)CC[C@H](OC(=O)CNCCCCCCCCCN)C(C)(C)[C@@H]5CC[C@]43C)[C@@H]2C1`, for which the IC50 came out at 3.33 µmol.

Another experiment concerns SW480. As to the kind of experiment: Cytotoxicity against human SW480 cells after 96 hrs by sulforhodamine B assay. The class given is functional, cell-based.
The compound `CC1(C)[C@@H](OC(=O)CCl)CC[C@]2(C)[C@H]3C(=O)C=C4[C@@H]5C[C@@](C)(C(=O)O)CC[C@]5(C)CC[C@@]4(C)[C@]3(C)CC[C@@H]12` returned an IC50 of 25.91 µmol.

On to `COC(=O)[C@@]1(C)CC[C@]2(C)CC[C@]3(C)C(=CC(=O)[C@@H]4[C@@]5(C)CC[C@H](OC(=O)CNCCCCCCCCCN)C(C)(C)[C@@H]5CC[C@]43C)[C@@H]2C1`, for which the IC50 is 5.74 µmol.

Another experiment deals with HT-29. Put plainly: Cytotoxicity against human HT-29 cells after 96 hrs by sulforhodamine B assay. The class given is functional, cell-based.
`CC1(C)[C@@H](OC(=O)CCl)CC[C@]2(C)[C@H]3C(=O)C=C4[C@@H]5C[C@@](C)(C(=O)O)CC[C@]5(C)CC[C@@]4(C)[C@]3(C)CC[C@@H]12` had an IC50 of 16.91 µmol.

`COC(=O)[C@@]1(C)CC[C@]2(C)CC[C@]3(C)C(=CC(=O)[C@@H]4[C@@]5(C)CC[C@H](OC(=O)CNCCCCCCCCCN)C(C)(C)[C@@H]5CC[C@]43C)[C@@H]2C1` yielded an IC50 of 2.06 µmol.

Another experiment deals with 8505C. Put plainly: Cytotoxicity against human 8505C cells after 96 hrs by sulforhodamine B assay. The class given is functional, cell-based.
Compound `CC1(C)[C@@H](OC(=O)CCl)CC[C@]2(C)[C@H]3C(=O)C=C4[C@@H]5C[C@@](C)(C(=O)O)CC[C@]5(C)CC[C@@]4(C)[C@]3(C)CC[C@@H]12` registered an IC50 of 26.08 µmol.

Compound `COC(=O)[C@@]1(C)CC[C@]2(C)CC[C@]3(C)C(=CC(=O)[C@@H]4[C@@]5(C)CC[C@H](OC(=O)CNCCCCCCCCCN)C(C)(C)[C@@H]5CC[C@]43C)[C@@H]2C1` came in with an IC50 of 6.18 µmol.

System in another experiment: not listed separately
As to the kind of experiment: Cytotoxicity against human A253 cells after 96 hrs by sulforhodamine B assay. The class given is functional, cell-based.
As for `CC1(C)[C@@H](OC(=O)CCl)CC[C@]2(C)[C@H]3C(=O)C=C4[C@@H]5C[C@@](C)(C(=O)O)CC[C@]5(C)CC[C@@]4(C)[C@]3(C)CC[C@@H]12`, the IC50 was 25.54 µmol.

Turning to `COC(=O)[C@@]1(C)CC[C@]2(C)CC[C@]3(C)C(=CC(=O)[C@@H]4[C@@]5(C)CC[C@H](OC(=O)CNCCCCCCCCCN)C(C)(C)[C@@H]5CC[C@]43C)[C@@H]2C1`, the IC50 turned out to be 4.65 µmol.

Another experiment concerns FaDu. Put plainly: Cytotoxicity against human FADU cells after 96 hrs by sulforhodamine B assay. The class given is functional, cell-based.
Compound `CC1(C)[C@@H](OC(=O)CCl)CC[C@]2(C)[C@H]3C(=O)C=C4[C@@H]5C[C@@](C)(C(=O)O)CC[C@]5(C)CC[C@@]4(C)[C@]3(C)CC[C@@H]12` yielded an IC50 of 23.56 µmol.

On to `COC(=O)[C@@]1(C)CC[C@]2(C)CC[C@]3(C)C(=CC(=O)[C@@H]4[C@@]5(C)CC[C@H](OC(=O)CNCCCCCCCCCN)C(C)(C)[C@@H]5CC[C@]43C)[C@@H]2C1`, for which the IC50 amounted to 5.54 µmol.

The subject of the next experiment is DLD-1. As to the kind of experiment: Cytotoxicity against human DLD1 cells after 96 hrs by sulforhodamine B assay. Type of experiment: functional, cell-based.
In turn, `CC1(C)[C@@H](OC(=O)CCl)CC[C@]2(C)[C@H]3C(=O)C=C4[C@@H]5C[C@@](C)(C(=O)O)CC[C@]5(C)CC[C@@]4(C)[C@]3(C)CC[C@@H]12` registered an IC50 of 17.36 µmol.

Turning to `COC(=O)[C@@]1(C)CC[C@]2(C)CC[C@]3(C)C(=CC(=O)[C@@H]4[C@@]5(C)CC[C@H](OC(=O)CNCCCCCCCCCN)C(C)(C)[C@@H]5CC[C@]43C)[C@@H]2C1`, the IC50 turned out to be 4.5 µmol.

A further experiment deals with HCT-116. Put plainly: Cytotoxicity against human HCT116 cells after 96 hrs by sulforhodamine B assay. Type of experiment: functional, cell-based.
Compound `CC1(C)[C@@H](OC(=O)CCl)CC[C@]2(C)[C@H]3C(=O)C=C4[C@@H]5C[C@@](C)(C(=O)O)CC[C@]5(C)CC[C@@]4(C)[C@]3(C)CC[C@@H]12` came in with an IC50 of 14.41 µmol.

Consider `COC(=O)[C@@]1(C)CC[C@]2(C)CC[C@]3(C)C(=CC(=O)[C@@H]4[C@@]5(C)CC[C@H](OC(=O)CNCCCCCCCCCN)C(C)(C)[C@@H]5CC[C@]43C)[C@@H]2C1`, for which the IC50 worked out at 3.44 µmol.

The subject of a further experiment is A2780. As to the kind of experiment: Cytotoxicity against human A2780 cells after 96 hrs by sulforhodamine B assay. The class given is functional, cell-based.
On to `CC1(C)[C@@H](OC(=O)CCl)CC[C@]2(C)[C@H]3C(=O)C=C4[C@@H]5C[C@@](C)(C(=O)O)CC[C@]5(C)CC[C@@]4(C)[C@]3(C)CC[C@@H]12`, for which the IC50 came to 23.77 µmol.

Regarding `COC(=O)[C@@]1(C)CC[C@]2(C)CC[C@]3(C)C(=CC(=O)[C@@H]4[C@@]5(C)CC[C@H](OC(=O)CNCCCCCCCCCN)C(C)(C)[C@@H]5CC[C@]43C)[C@@H]2C1`, the IC50 was 3.3 µmol.
